Reference: article PMC10037499, “High-Throughput Screen Reveals the Structure–Activity Relationship of the Antimicrobial Lasso Peptide Ubonodin” (ACS Central Science, 2023)
Where a SMILES comes first, the peptide text is derived from it.

Columns and labels:
E. coli MC1061 = experiment: Spot dilution assay of E. coli producing the ubonodin variant from pUboABC; type: cell-based; conditions: variant in pUboABC backbone in E. coli MC1061, induction with 100 μM IPTG, ten-fold serial dilutions, biological duplicates
Procedure: Cultures of E. coli MC1061 transformed with the appropriate plasmids were grown. Aliquots of the cultures were sampled prior to and after induction with 100 μM IPTG, and 10-fold serial dilutions were plated. […]
All cloning was conducted by PCR amplification (using Q5 polymerase), restriction digestion, ligation, (using T4 DNA ligase), and transformation into chemically competent E. coli XL1-Blue. All cloning with a pUboABC backbone was done by plating transformation mixt ures onto Lysogeny Broth (LB) plates supplemented with 100 μg/mL ampicillin and 0.2% w/v glucose, and colonies were inoculated into LB media supplemented with 100 μ g/mL ampicillin and 0.2% w/v glucose to suppress any leaky expression. Cloning for all other plasmid constructs was done by plating transformation mixtures onto Lysogeny Broth (LB) plates supplemented with 100 μ g/ m L ampicillin, and colonies were inoculated into LB media supplemented with 100 μ g/ m L ampicillin.
Plasmids were extracted using Qiagen QIAprep Spin Miniprep Kit and sequence verified using Sanger sequencing. All primer sequences are listed in Table S7, and all plasmid constructs are […]
pUboABC was cloned by amplifying pWC99 with pQE-80 NheI For and pAT8 Nco I Rev.
The amplicon was ligated into pWC99 digested with Nhe I and Nco I. pUboBC was cloned by digesting pUboABC with Nh e I and Nco I and ligating that fragment into pQE-80 digested with Nhe I and Nco I. pUboABC S5H I16P and pUboABCD S5H I16P were cloned with overlap PCR using pWC99 as the template. One fragment was amplified with pQE-80 EcoRI For and S5H I16P Rev v2 and the second fragment was amplified with S5H I16P For v2 and pQE-80 HindII I Rev. […]
All remaining plasmid constructs were cloned with overlap PCR. One fragment was amplified with Xho I For Lib and a mutagenic reverse primer and the second fragment was amplified with NheI Rev Lib and a mutagenic forward primer. The templates and mutagenic […]
The fragments were joined with a second round of PCR and amplified with XhoI For Lib and NheI Rev Lib. Amplicons were ligated into the appropriate plasmid backbone digested with Xho I and Nhe I-HF. The plasmid backbones […]
The appropriate plasmid was transformed into electrocompetent E. coli MC1061, plated onto LB plates supplemented with 100 μ g/ m L ampicillin and 0.2% w/v glucose, and incubated at 30 °C for 16 hours. Colonies were inoculated into LB media supplemented with 100 μ g/ m L ampicillin and 0.2% w/v glucose and grown at 37 °C for 16 hours. These cultures were sub-cultured to an OD600 of 0.02 in 50 mL of LB media supplemented with 100 μg/mL ampicillin in a 250 mL flask. Once the OD600 reached 0.3, a 1 mL aliquot was sampled immediately prior to inducing the cultures with 100 μM isopropyl β-D-1-thiogalactopyranoside (IPTG). The aliquot was washed with Phosphate-Buffered Saline (PBS) two times and ten-fold serial dilutions were spotted onto LB plates supplemented with 100 μ g/ m L ampicillin and 0.2% w/v glucose. For each following timepoint, a 1 mL sample of each culture was withdrawn, washed with PBS two times, and ten- […]
fold serial dilutions were spotted onto LB plates supplemented with 100 μ g/m L ampicillin and 0.2% w/v glucose. Plates were incubated for 16 hours at 37 °C before imaging. […]
250 mL flask. Ten-fold serial dilutions of the culture were plated onto LB plates supplemented with 100 μ g/ m L ampicillin and 0.2% w/v glucose. The cultures were then grown at 37 °C, and once the OD600 reached 0.3, a 1 mL sample of the culture was withdrawn immediately before the cultures were induced with 10 μM or 100 μM IPTG and returned to grow longer. […]
All plates were incubated at 37 °C for 16 hours, after which the number of colonies was counted. Three biological replicates of this assay were done.
Co-Culture of E. coli MC1061 pUboABC and E. coli MC1061 pUboBC pUboABC (0.9 ng) and pUboBC (0.1 ng) were transformed into electrocompetent E. coli MC1061 with a one- hour outgrowth at 37 °C in LB media supplemented with 0.2% w/v glucose. […]

B. cenocepacia AU0756 = system: B. cenocepacia AU0756
Procedure: We proceeded to test the antimicrobial activity of the selected variants against two clinical isolates of the Bcc, B. cenocepacia AU0756 and B. cenocepacia AU24362, in broth microdilution assays. […] We revisited these measurements using broth microdilution assays following the Clinical & Laboratory Standards Institute (CLSI) standard.
Broth microdilution assays of the ubonodin variants were conducted using B. cenocepacia AU0756 and B. cenocepacia AU24362 with guidelines provided by the Clinical & Laboratory Standards Institute (CLSI).

[1] = system: RNA polymerase (RNAP) in E. coli MC1061; experiment: High-throughput growth-based screen with NGS (enrichment value) for RNA polymerase inhibition; type: cell-based; design: key to Experimental observation (enrichment observed in the screen): Dropout: Many variants inhibit RNAP so strongly that they cannot be detected by NGS after IPTG induction (referred to as dropout variants); conditions: Table S4; variants whose MICs were tested
Procedure: The single mutant library was analyzed by NGS at multiple stages of sample preparation (Figure 2A) to track its evolution throughout the screen. Specifically, the frequency of each possible aa variant was computed at each stage by summing up counts for each distinct translated sequence and dividing by the total number of counts for all variants (eq S1, SI Methods). Since cells expressing an RNAP-inhibiting ubonodin variant will have growth defects relative to cells with a nontoxic variant, RNAP-inhibiting ubonodin variants are expected to decrease in frequency throughout the screen.
First, the naïve library (digested PCR products) was sequenced. These digested PCR products were cloned into the pUboABC backbone and transformed into a recA^– cloning strain. This plasmid library was sequenced again to capture any changes upon transformation of the library into E. coli. The change between the naïve library and the cloning transformation library was minimal (Figure S6A). This plasmid library was transformed into the screening strain MC1061, and the plasmid from resulting colonies was also sequenced. The library in MC1061 was grown up en masse in liquid culture to mid log phase, and a portion of the culture was plated. These colonies were scraped, then the plasmid was isolated and sequenced. Finally, the liquid culture was induced with IPTG, after which a portion of the culture was plated and the plasmid was isolated and sequenced. It is key to note that all samples from liquid cultures were plated prior to sequencing to ensure that only viable cells were sequenced. […] The rationale for sequencing at these five different stages was the possibility that leaky expression of uboA would affect the frequency of active mutants prior to IPTG induction. Indeed, we observed that the frequency of some uboA mutants dropped as soon as they were transformed into the screening strain MC1061 while the frequency of other mutants climbed (Figure 2B).
The behavior of the point variants (i.e., variants with a single aa substitution) was examined by calculating their enrichment values, the base-2 logarithm of the ratio of the variant’s frequency at a specific step of the screen to the variant’s frequency in the cloning transformation library (eq S3, Figure S6). The most relevant enrichment value for ubonodin activity is the comparison between the post-IPTG library and the cloning transformation library (Figure 2A). […] Many variants inhibit RNAP so strongly that they cannot be detected by NGS after IPTG induction (referred to as dropout variants). […] Variants with a stop codon mutation and variants containing an aa substitution at Tyr9 or Tyr27 (positions conserved in MccJ25 and shown to be crucial for RNAP inhibition, see Figure S7)[26] have positive enrichment values (1.2–1.7), serving as quality control for the screen (Figure 3A). Strikingly, 63% of point variants decreased in frequency, indicating a high tolerance to aa substitution. […] The positions with active variants are Asn11 through Ser24 in the loop and Asp3, Ser5, and Ala7 in the ring.
The single mutant and double mutant libraries were transformed into E. coli MC1061. Colonies were resuspended in media and subcultured into a larger culture. Aliquots of the cultures were sampled prior to and after induction with 10 μM IPTG and 100 μM IPTG and plated. After 16 h of incubation, the colonies were resuspended in media and plasmids were miniprepped.
Samples were PCR amplified with barcoded primers and combined such that double mutant library samples were over-represented compared to single mutant library samples to provide sufficient coverage of the larger double mutant library. Samples were sequenced using an Illumina MiSeq Micro 300nt and an Illumina NovaSeq 6000 Sequencing System. Downstream analysis of the data was conducted with Python, MATLAB, and R.
V to reduce genomic DNA contamination. One fragment was amplified with Xho I For Lib and a […]

Structure (SMILES) | Inhibits Growth (E. coli MC1061) | B. cenocepacia AU0756 MIC (B. cenocepacia AU0756) | Experimental observation (enrichment observed in the screen) [1]
CC[C@H](C)[C@@H]1NC(=O)[C@H](CO)NC(=O)CNC(=O)[C@H](CC(=O)O)NC(=O)CNC(=O)CNC(=O)CC[C@@H](C(=O)N[C@@H](Cc2ccc(O)cc2)C(=O)N[C@@H](Cc2ccccc2)C(=O)N[C@@H](CC(N)=O)C(=O)N[C@@H](Cc2ccccc2)C(=O)N2CCC[C@H]2C(=O)N[C@@H](CCSC)C(=O)N[C@@H](Cc2c[nH]cn2)C(=O)N[C@H](C(=O)N[C@@H](Cc2c[nH]cn2)C(=O)N[C@@H](CC(=O)O)C(=O)N[C@@H](Cc2c[nH]c3ccccc23)C(=O)N[C@@H](CCC(N)=O)C(=O)N[C@H](C(=O)N[C@@H](CCSC)C(=O)N[C@@H](CC(=O)O)C(=O)N[C@@H](CO)C(=O)NCC(=O)N[C@@H](Cc2ccc(O)cc2)C(=O)N[C@@H](Cc2ccc(O)cc2)C(=O)NCC(=O)O)[C@@H](C)CC)[C@@H](C)CC)NC(=O)[C@H](C)NC1=O [R12F] (HELM PEPTIDE1{G.G.D.G.S.I.A.E.Y.F.N.F.P.M.H.I.H.D.W.Q.I.M.D.S.G.Y.Y.G}$PEPTIDE1,PEPTIDE1,1:R1-8:R3$$$V2.0) | Yes | 2 µM | -5.3
CC[C@H](C)[C@@H]1NC(=O)[C@H](CO)NC(=O)CNC(=O)[C@H](CC(=O)O)NC(=O)CNC(=O)CNC(=O)CC[C@@H](C(=O)N[C@@H](Cc2ccc(O)cc2)C(=O)N[C@@H](Cc2ccccc2)C(=O)N[C@@H](CC(N)=O)C(=O)N[C@@H](CCCNC(=N)N)C(=O)N2CCC[C@H]2C(=O)N[C@@H](CCSC)C(=O)N[C@@H](Cc2c[nH]cn2)C(=O)N[C@@H](CCC(=O)O)C(=O)N[C@@H](Cc2c[nH]cn2)C(=O)N[C@@H](CC(=O)O)C(=O)N[C@@H](Cc2c[nH]c3ccccc23)C(=O)N[C@@H](CCC(N)=O)C(=O)N[C@H](C(=O)N[C@@H](CCSC)C(=O)N[C@@H](C)C(=O)N[C@@H](CO)C(=O)NCC(=O)N[C@@H](Cc2ccc(O)cc2)C(=O)N[C@@H](Cc2ccc(O)cc2)C(=O)NCC(=O)O)[C@@H](C)CC)NC(=O)[C@H](C)NC1=O [I16E D23A] (HELM PEPTIDE1{G.G.D.G.S.I.A.E.Y.F.N.R.P.M.H.E.H.D.W.Q.I.M.A.S.G.Y.Y.G}$PEPTIDE1,PEPTIDE1,1:R1-8:R3$$$V2.0) | Yes | 2 to 8 µM | Dropout
CC[C@H](C)[C@@H]1NC(=O)[C@H](CO)NC(=O)CNC(=O)[C@H](CC(=O)O)NC(=O)CNC(=O)CNC(=O)CC[C@@H](C(=O)N[C@@H](Cc2ccc(O)cc2)C(=O)N[C@@H](Cc2ccccc2)C(=O)N[C@@H](CC(N)=O)C(=O)N[C@@H](Cc2ccccc2)C(=O)N2CCC[C@H]2C(=O)N[C@@H](CCSC)C(=O)N[C@@H](Cc2c[nH]cn2)C(=O)N[C@H](C(=O)N[C@@H](Cc2c[nH]cn2)C(=O)N[C@@H](CC(=O)O)C(=O)NCC(=O)N[C@@H](CCC(N)=O)C(=O)N[C@H](C(=O)N[C@@H](CCSC)C(=O)N[C@@H](CC(=O)O)C(=O)N[C@@H](CO)C(=O)NCC(=O)N[C@@H](Cc2ccc(O)cc2)C(=O)N[C@@H](Cc2ccc(O)cc2)C(=O)NCC(=O)O)[C@@H](C)CC)[C@@H](C)CC)NC(=O)[C@H](C)NC1=O [R12F W19G] (HELM PEPTIDE1{G.G.D.G.S.I.A.E.Y.F.N.F.P.M.H.I.H.D.G.Q.I.M.D.S.G.Y.Y.G}$PEPTIDE1,PEPTIDE1,1:R1-8:R3$$$V2.0) | Yes | >8 µM | Dropout
CC[C@H](C)[C@@H]1NC(=O)[C@H](CO)NC(=O)CNC(=O)[C@H](CC(=O)O)NC(=O)CNC(=O)CNC(=O)CC[C@@H](C(=O)N[C@@H](Cc2ccc(O)cc2)C(=O)N[C@@H](Cc2ccccc2)C(=O)N[C@@H](CC(N)=O)C(=O)N[C@@H](CCCNC(=N)N)C(=O)N2CCC[C@H]2C(=O)N[C@@H](CCSC)C(=O)N[C@@H](Cc2c[nH]cn2)C(=O)N[C@@H](CC(=O)O)C(=O)N[C@@H](Cc2c[nH]cn2)C(=O)N[C@@H](CC(=O)O)C(=O)N[C@@H](Cc2c[nH]c3ccccc23)C(=O)N[C@@H](CCC(N)=O)C(=O)N[C@H](C(=O)N[C@@H](CCSC)C(=O)N[C@@H](CC(=O)O)C(=O)N[C@@H](CO)C(=O)NCC(=O)N[C@@H](Cc2ccc(O)cc2)C(=O)N[C@@H](Cc2ccc(O)cc2)C(=O)NCC(=O)O)[C@@H](C)CC)NC(=O)[C@H](C)NC1=O [I16D] (HELM PEPTIDE1{G.G.D.G.S.I.A.E.Y.F.N.R.P.M.H.D.H.D.W.Q.I.M.D.S.G.Y.Y.G}$PEPTIDE1,PEPTIDE1,1:R1-8:R3$$$V2.0) | Yes | 0.5 to 2 µM | -6.2
